Results taken from patent US20040053885A1, “Use of hyaluronic acid derivatives for the prevention of inflammatory arthritis” (priority 2000, published 2004).

Legend:
[1] = system: antigen-induced arthritis (knee joint); experiment: Antigen-induced arthritis of rats: lateral joint diameter of the right knee joint after intraarticular injection; assay type: in vivo, rat (female Wistar); conditions: short-term experiment, 0.05 ml intraarticular on day 1
[2] = system: antigen-induced arthritis (knee joint); experiment: as above; assay type: in vivo, rat (female Wistar); design: Joint diameter (right), Day 0: unit not given here; conditions: for Joint diameter (right), Day 0: day 0, joint diameter before induction of arthritis (baseline); for Joint diameter (right), day 1, difference with respect to day 0 / Joint diameter (right), measured value on day 1: day 1 after induction; for Increase of joint diameter (right) from day 0 to day 1: day 1, increase after induction, before treatment takes effect
Experimental: The animal model employed, antigen-induced arthritis of rats, is a well established animal model which reflects the mechanisms of rheumatoid arthritis (RA) very well. […] Female Wistar rats are employed for this experiment. At an interval of one week, the animals are subcutaneously preimmunized with 0.1 mg of methylalbumin (mBSA) in Freund's complete adjuvant. Two weeks after the second immunization, 0.1 mg of mBSA is injected intraarticularly into the […] knee joint. This injection induces arthritis, which persists for weeks after an acute phase. One day after the induction of the arthritis, the treatment is begun with sulfated hyaluronic acid solution or with high molecular weight hyaluronic acid (MW=1,800 kD), which are injected intraarticularly into the knee joint. The immunization of the animals was effected at an interval of 7 days. In the first immunization, a total of four subcutaneous injections of 0.25 ml each (corresponding to 0.1 mg of methylalbumin in Freund's complete adjuvant) were effected on both sides of the vertebral column at the level of the shoulder blade and above the hip (each at about 1.5 cm distance from the spines of the vertebrae). In the 2nd immunization, 3 depots of 0.3 ml of solution each were introduced; one exactly between the two shoulder blades and two at the level of the abdomen on both sides paravertebrally. The induction of arthritis was effected two weeks after the 2nd immunization by […] injection of 0.05 ml each of a 10 mg/ml solution of mBSA in physiological saline into the respective right knee joint. On the day after induction of arthritis, 0.05 ml each of a formulation containing sulfated HA was injected into the right knee joint of the 20 animals of the experimental group (use of an insulin syringe, thin cannula, 0.35×40 mm). Thereafter, injection was effected once a week (long-term group). The lateral joint diameter of all animals was measured by means of a distance meter (Matatuyo) prior to and 1, 4 and 8 days after the induction of arthritis and then every week until the experiment was completed. The animals were also weighed each time. On the 7th day, 10 animals of the experimental group and 10 animals of the control group were killed. The animals were put down by ether anesthesia, and the sacrifice of the remaining animals was effected 1 week after the last injection of a formulation containing sulfated HA into the right knee joint.

[3] = long-term experiment, intraarticular injection day 1, then once a week
[4] = short-term experiment, 0.05 ml intraarticular on day 1

Row | Substance | Decrease or increase of joint diameter (right) after the injection on day 1, Day 8 [1] | Joint diameters (as a measure of the inflammatory swelling), result in words ([2]; long-term experiment over 3 weeks) | Joint diameter (right), Day 0 ([2]; long-term experiment) | Joint diameter (right), day 1, difference with respect to day 0 ([2]; long-term experiment) | Joint diameter (right), measured value on day 1 ([2]; long-term experiment) | Decrease or increase of joint diameter (right) after the injection on day 1, Day 4 [2, 3] | Decrease or increase of joint diameter (right) after the injection on day 1, Day 8 [2, 3] | Decrease or increase of joint diameter (right) after the injection on day 1, Day 15 [2, 3] | Decrease or increase of joint diameter (right) after the injection on day 1, Day 22 [2, 3] | Decrease or increase of joint diameter (right) after the injection on day 1, Day 29 [2, 3] | Decrease or increase of joint diameter (right) after the injection on day 1, Day 4 [2, 4] | Joint diameter (right), Day 0 ([2]; short-term experiment) | Increase of joint diameter (right) from day 0 to day 1 ([2]; short-term experiment)
1 | sulfated hyaluronic acid [Sulfated HA] | −118 | significant decrease of the joint diameters | 927.6 | +226 | 1153.9 | −4 | −127 | −203 | −212 | −231 | +20 | 867.4 | +228
2 | hyaluronic acid [HA, reference compound] | −45 | – | 926.0 | +206 | 1132.9 | +27 | −97 | −140 | −144 | −134 | +18 | 913.2 | +206
